In brackets after ≈: the same amount, converted by molar mass.

This is an account of results in ChEMBL document CHEMBL5579887, “Structure-Activity Relationship Studies of Substituted 2-Phenyl-1,2,4-triazine-3,5(2H,4H)-dione Analogues: Development of Potent eEF2K Degraders against Triple-Negative Breast Cancer” (J Med Chem, 2024).

Data set [1] concerns MDA-MB-231. Put plainly: cells. The note with it: Homo sapiens, MDA-MB-231, 72 h, read-out: INH.
Description: Antitumor activity against human MDA-MB-231 cells assessed as inhibition of cell viability by measuring inhibition rate at 20 uM measured after 72 hrs by CCK-8 assay relative to control
In data set [2] the test system is MDA-MB-231. Description: cells. As to conditions: Homo sapiens, MDA-MB-231, 72 h, read-out: INH. The source holds these as a separate data set.
Description: Antitumor activity against human MDA-MB-231 cells assessed as inhibition of cell viability by measuring inhibition rate at 1 uM measured after 72 hrs by CCK-8 assay relative to control
Data set [3] has as its system MDA-MB-231. Description: cells. The note with it: Homo sapiens, MDA-MB-231, 72 h.
Description: Antitumor activity against human MDA-MB-231 cells assessed as inhibition of cell viability by measuring inhibition rate measured after 72 hrs by CCK-8 assay relative to control
Data set [4] can be described thus: Kinetic solubility of the compound in PBS buffer at pH 7.4 measured by HPLC analysis.
For data set [5], the target named is T1, Eukaryotic elongation factor 2 kinase (Homo sapiens, UniProt O00418).
T1 sequence (O00418 whole entry): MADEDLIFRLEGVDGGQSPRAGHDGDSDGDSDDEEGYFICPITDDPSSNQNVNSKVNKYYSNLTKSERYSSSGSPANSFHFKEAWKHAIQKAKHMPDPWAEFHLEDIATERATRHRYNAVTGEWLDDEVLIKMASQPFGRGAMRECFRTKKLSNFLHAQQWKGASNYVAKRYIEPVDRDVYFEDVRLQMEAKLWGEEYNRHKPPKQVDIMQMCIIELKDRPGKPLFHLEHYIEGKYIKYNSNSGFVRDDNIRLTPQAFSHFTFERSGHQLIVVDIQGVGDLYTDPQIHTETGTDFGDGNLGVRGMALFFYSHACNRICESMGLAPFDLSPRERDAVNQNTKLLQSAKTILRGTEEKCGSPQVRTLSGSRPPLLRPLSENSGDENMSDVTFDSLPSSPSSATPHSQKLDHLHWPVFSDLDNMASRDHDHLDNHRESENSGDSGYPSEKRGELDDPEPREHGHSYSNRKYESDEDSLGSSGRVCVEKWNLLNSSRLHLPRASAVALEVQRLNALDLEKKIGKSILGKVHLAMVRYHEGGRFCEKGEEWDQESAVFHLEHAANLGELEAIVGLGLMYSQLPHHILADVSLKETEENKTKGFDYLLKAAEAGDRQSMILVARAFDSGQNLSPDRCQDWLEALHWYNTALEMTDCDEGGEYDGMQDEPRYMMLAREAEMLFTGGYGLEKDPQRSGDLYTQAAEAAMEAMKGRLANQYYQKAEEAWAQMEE
Description: Binding affinity to eEF2K (unknown origin) assessed as dissociation constant measured by SPR analysis. (SPR reads the build-up and loss of mass on a sensor chip optically.)

Data set [6] concerns MDA-MB-231. Put plainly: cells. As to conditions: Homo sapiens, MDA-MB-231, 72 h, read-out: INH. This is another data set of the same source.
Description: Antitumor activity against human MDA-MB-231 cells assessed as inhibition of cell viability at 100 nM measured after 72 hrs by CCK-8 assay
The nature of data set [7]: In vivo antitumor activity against human MDA-MB-231 cells xenografted in female nude mouse assessed as tumor growth inhibition at 10 mg/kg, ip administered every other day relative to control. The note with it: MDA-MB-231, read-out: TGI. On the technique in general: In xenograft studies the graft and the host belong to different species.

As to `Cc1ccc(-n2nc(C(=O)N3CCCC(CNC(=O)OC(C)(C)C)C3)c(=O)n(Cc3cccc(F)c3)c2=O)cc1C` (centres undefined), the inhibition at 20 µM in data set [1] was 96%. Besides, the inhibition at 1 µM in data set [2] came out at 91.2%. In data set [3], this compound yielded an IC50 of 102 nM. The kinetic solubility in data set [4] was 44 µM (≈ 24.9 µg/mL). Also, in data set [5], the Kd came out at 436 nM.

As to `CC(=O)O[C@H]1C(=O)[C@@]2(C)[C@H]([C@H](OC(=O)c3ccccc3)[C@]3(O)C[C@H](OC(=O)[C@H](O)[C@@H](NC(=O)c4ccccc4)c4ccccc4)C(C)=C1C3(C)C)[C@]1(OC(C)=O)CO[C@@H]1C[C@@H]2O` [PACLITAXEL], the inhibition at 1 µM in data set [2] was found to be 88.9%. For the same compound, in data set [6], the inhibition at 0.1 µM worked out at 82.4%. Also, the IC50 in data set [3] came to 38.3 nM. In addition, in data set [7], the inhibition in vivo at 10 mg/kg worked out at 52.7%.

As usually defined, the IC50 is the concentration needed to halve the response being measured. One may read the kinetic solubility as the concentration staying in solution when a stock, usually in DMSO, is diluted into the medium. The Kd is the equilibrium constant for the complex coming apart.
